Data: article PMC3695784, “2,3-cis-2R,3R-(−)-epiafzelechin-3-O-p-coumarate, a novel flavan-3-ol isolated from Fallopia convolvulus seed, is an estrogen receptor agonist in human cell lines” (BMC Complementary and Alternative Medicine, 2013)

Tests used:
SKBR3 cells [1] = test: Control SKBR3 cells with ERE-Luc plasmid but not transfected with ER; format: cell-based, human; conditions: E2 10 nM, 24 h
Description: SKBR3 cells were transfected with 0 .2 µ g ERE-Luc plasmid, 0.05 µ g of either pcDNA3ERα or pcDNA3ERβ, and 0.55 µg pcDNA3.1+. Control SKBR3 cells were transfected with 0.2 µ g ERE-Luc plasmid and 0.6 µ g pcDNA3.1+. Cells were treated for 24 h, lysed, and luciferase activity assessed. Luciferaseexpression was normalized using the Bradford assay.

ERα or ERβ [2] = conditions: E2 standard set as 100%; cited from earlier work
human ERβ = target: T1, human ERβ (Homo sapiens, UniProt Q92731); test: SKBR3 cells transiently transfected with ERβ and ER-responsive luciferase reporter; format: cell-based; conditions: for maximum luciferase induction, percent of maximum E2 activity: ERβ-transfected SKBR3, 10 nM E2 = 100%, normalized to protein
T1 construct: human ERβ segment (530 aa, GenBank: AF051427.1); expressed in transfected cells; host or cells: SKBR3 (human breast carcinoma), transient transfection with ERβ/pcDNA3
Excerpt: (§1) The human ERβ expression plasmid (ERβ/pcDNA3) was constructed by PCR amplification of the human ERβ segment (530 aa, GenBank: AF051427.1) out of pCMV5 (kindly provided by Dr. John Katzenellenbogen, University of Illinois) and insertion of this fragment at BstEII and AflII restriction sites into the modified pcDNA3 construct, which was previously described. […] The human ERα expression plasmid, pcDNA3.1 + ERα, was purchased from Missouri S&T cDNA Resouce Center and was confirmed by restriction digestion. […] The generated plasmids were verified by DNA sequencing. Plasmids ERβ/pcDNA3 and ERα/pcDNA3were used as templates for in vitro expression (Additional file 2); ERα and ERβ were synthesized in vitro using the TNT Quick coupled transcription/translation rabbit reticulocyte lysate system (Promega). Briefly, ^35S-Radiolabeled hERα and hERβ were synthesized in separate reactions in vitro according to manufacturer’s protocol, denatured, and subjected to SDS-polyacrylamide gel electrophoresis, and the kDa of each protein was determined by autoradiography of the dried gel.
(§2) Protein concentration was determined using the Bradford assay.
(§3) Luciferase activity was expressed as relative light units (RLU) for assays using BG1Luc4E2 cells or as a ratio of luciferase RLU/mg protein for assays using SKBR3 cells. Protein amount (mg) was calculated from concentrations obtained in Bradford assay and the respective luciferase RLU was divided by mg protein to obtain luciferase RLU/mg protein. Average luciferase RLU (or luciferase RLU/mg protein) values were calculated from triplicate wells. Solvent luciferase RLU (or luciferase RLU/mg) was subtracted from luciferase RLU induced by chemical. In the case of extract and fractions, luciferase RLU induced by method blank was subtracted from luciferase RLU induced by extract or fraction. […] The Student’s t-test (2-tailed, paired) was used to establish significant difference of chemical/fraction/extract activity from that of solvent or method blank (p ≤ 0.05), and dose–response curves were fitted using a sigmoidal Hill’s 4-parameter algorithm (SigmaPlot v.9.0, Systat, San Jose, CA), as described previously. Half-maximal inductions of each treatment (EC50) were determined as described in [34].

ERα or ERβ [3] = conditions: greater in ERβ; cited from earlier work
SKBR3 cells [4] = test: Toxicity observed in transfected SKBR3 cells (protein concentration, RLU, cell death)
Description: SKBR3 cells were grown and maintained in high-glucose DMEM and 10% premium FBS. SKBR3 cells were cultured in phenol red-free medium supplemented with 10% charcoal-stripped FBS for 48 h before transfection and seeded in 24-well plates at a density of 300,000 cells/mL. 24 h after plating, cells were transfected for 24 h using Lipofectamine reagent (2 μL/well) according to the manufacturer’s recommendations (0.2 μg of ER-responsive reporter plasmid pGudLuc7ere [32] and 0.05 μg receptor plasmids (ERα/pcDNA3 or ERβ/pcDNA3) or empty vector (pcDNA3.1+) per well, normalizing μg DNA/well to 0.8 μg/well with empty vector). 24 h post-transfection, SKBR3 cells were incubated for 24 h with chemical, the cells harvested, and both protein concentration and luciferase activity determined. Protein concentration was determined using the Bradford assay [35]. Briefly, 5 μL/well SKBR3 lysate was incubated for 5 min at room temperature with 1X Bradford Reagent (200 μL). Protein concentration was calibrated against a standard curve of bovine serum albumin (0.05-0.5 mg/mL) on the same plate and was measured as mg protein/mL using a PhosphorImager (Molecular Dynamics).

BG1Luc4E2 cells = test: Cell death/toxicity observed in BG1Luc4E2 bioassay; format: cell-based, human
Description: Method blank treatments were included if applicable. […] Protein concentration was determined using the Bradford assay.

human ERα = human ERα (Homo sapiens, UniProt P03372); test: SKBR3 cells transiently transfected with ERα and ER-responsive luciferase reporter; format: cell-based
Excerpt: as §1, §2
Luciferase activity was expressed as relative light units (RLU) for assays using BG1Luc4E2 cells or as a ratio of luciferase RLU/mg protein for assays using SKBR3 cells. Protein amount (mg) was calculated from concentrations obtained in Bradford assay and the respective luciferase RLU was divided by mg protein to obtain luciferase RLU/mg protein. Average luciferase RLU (or luciferase RLU/mg protein) values were calculated from triplicate wells. Solvent luciferase RLU (or luciferase RLU/mg) was subtracted from luciferase RLU induced by chemical. In the case of extract and fractions, luciferase RLU induced by method blank was subtracted from luciferase RLU induced by extract or fraction. […] Half-maximal inductions of each treatment (EC50) were determined as described in [34].

estrogen receptor = target: T2, estrogen receptor (Homo sapiens, UniProt P03372); test: BG1Luc4E2 stably transfected estrogen-responsive luciferase reporter bioassay; format: cell-based
T2 construct: the BG1Luc4E2 cell line endogenously expresses ERα; endogenous in cells; host or cells: BG1Luc4E2 (human ovarian carcinoma, stably transfected ERE-luciferase reporter)
Description: as §2, §3

T1 sequence (Q92731 whole entry): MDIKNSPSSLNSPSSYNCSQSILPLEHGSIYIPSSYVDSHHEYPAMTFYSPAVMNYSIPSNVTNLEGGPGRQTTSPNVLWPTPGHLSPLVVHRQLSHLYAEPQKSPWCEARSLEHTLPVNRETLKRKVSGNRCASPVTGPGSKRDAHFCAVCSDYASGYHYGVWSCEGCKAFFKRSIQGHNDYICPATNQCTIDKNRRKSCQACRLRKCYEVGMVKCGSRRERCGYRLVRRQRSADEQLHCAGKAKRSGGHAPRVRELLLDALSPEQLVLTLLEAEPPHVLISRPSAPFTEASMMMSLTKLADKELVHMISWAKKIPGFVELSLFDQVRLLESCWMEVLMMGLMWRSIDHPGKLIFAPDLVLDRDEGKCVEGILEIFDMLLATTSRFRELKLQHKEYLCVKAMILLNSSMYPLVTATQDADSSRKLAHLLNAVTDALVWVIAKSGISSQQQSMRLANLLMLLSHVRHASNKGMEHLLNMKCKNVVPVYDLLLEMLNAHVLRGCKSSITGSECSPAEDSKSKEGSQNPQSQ
T2 sequence (P03372 whole entry): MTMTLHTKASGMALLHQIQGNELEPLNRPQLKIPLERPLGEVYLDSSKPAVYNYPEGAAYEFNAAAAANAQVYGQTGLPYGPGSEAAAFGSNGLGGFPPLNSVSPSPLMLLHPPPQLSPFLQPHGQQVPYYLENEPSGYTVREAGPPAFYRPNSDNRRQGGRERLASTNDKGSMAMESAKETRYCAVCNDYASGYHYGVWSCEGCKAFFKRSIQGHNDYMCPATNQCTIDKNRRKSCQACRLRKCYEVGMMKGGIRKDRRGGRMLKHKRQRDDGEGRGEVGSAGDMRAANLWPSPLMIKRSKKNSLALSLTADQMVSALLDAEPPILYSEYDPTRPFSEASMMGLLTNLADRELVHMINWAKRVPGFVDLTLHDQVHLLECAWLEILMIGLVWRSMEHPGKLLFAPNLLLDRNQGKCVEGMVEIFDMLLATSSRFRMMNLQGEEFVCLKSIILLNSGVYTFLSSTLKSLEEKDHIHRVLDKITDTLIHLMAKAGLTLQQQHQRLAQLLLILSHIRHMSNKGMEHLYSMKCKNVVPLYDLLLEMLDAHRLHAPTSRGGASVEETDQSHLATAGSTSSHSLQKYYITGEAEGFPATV
Chain of human ERα (P03372 311-547): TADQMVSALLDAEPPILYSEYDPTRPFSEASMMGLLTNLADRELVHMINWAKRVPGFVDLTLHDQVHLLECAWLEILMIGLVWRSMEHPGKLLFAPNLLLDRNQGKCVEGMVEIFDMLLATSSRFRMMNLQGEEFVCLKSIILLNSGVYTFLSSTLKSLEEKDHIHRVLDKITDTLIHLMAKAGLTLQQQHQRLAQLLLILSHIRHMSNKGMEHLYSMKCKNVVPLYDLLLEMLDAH

## C[C@]12CC[C@@H]3c4ccc(O)cc4CC[C@H]3[C@@H]1CC[C@@H]2O [E2, 17-β-estradiol]
SKBR3 cells [1]
  luciferase expression in cells not transfected with ER: do not express luciferase

## COc1ccc(-c2coc3cc(O)cc(O)c3c2=O)cc1 [biochanin A]
ERα or ERβ [2]
  relative binding affinity, ERβ versus ERα: greater to ERβ than to ERα

## O=c1oc2cc(O)ccc2c2oc3cc(O)ccc3c12 [coumestrol]
ERα or ERβ [2]
  relative binding affinity, ERβ versus ERα: greater to ERβ than to ERα

## O=c1c(-c2ccc(O)cc2)coc2cc(O)ccc12 [diadzein]
ERα or ERβ [2]
  relative binding affinity, ERβ versus ERα: greater to ERβ than to ERα

## Cc1cc(O)c2c(c1)C(=O)c1cc(O)cc(O)c1C2=O [emodin, reference compound]
Human ERβ
  maximum luciferase induction, percent of maximum E2 activity: 127 ± 26%
Human ERβ; SKBR3 (ERβ), luciferase, 24 h, read-out: EC50 (concentration for half-maximal induction)
  EC50: 3 µM
ERα or ERβ [3]
  REP in ERβ-transfected versus ERα-transfected yeast cells: approximately one order of magnitude
SKBR3 cells [4]
  concentrations toxic to SKBR3 cells: greater than 10 μM

## O=c1c(-c2ccc(O)cc2)coc2cc(O)cc(O)c12 [genistein, reference compound]
SKBR3 cells [4]
  concentrations resulting in significantly decreased RLU: greater than 10 μM

## O=C(C=Cc1ccc(O)cc1)OC1Cc2c(O)cc(O)cc2OC1c1ccc(O)cc1 [rhodoeosein, 2,3-cis-(2R,3R)-(−)-epiafzelechin-3-O-p-coumarate]
BG1Luc4E2 cells; 24 h incubation
  concentrations that killed BG1Luc4E2 cells: ≥ 250 µM
BG1Luc4E2 cells; BG1Luc4E2 cells
  effect on cells at 0.25, 0.316, and 1 mM: caused cell death
BG1Luc4E2 cells; BG1Luc4E2 cells, 197 μM
  toxicity at 197 μM: no toxicity
Human ERα; ERα-transfected SKBR3, 10 nM E2 = 100%, normalized to protein
  maximum luciferase induction, percent of maximum E2 activity: 78 ± 8%
Human ERα; SKBR3 (ERα)
  REP (relative estrogenic potency = EC50 E2/EC50 chemical): 3.4 × 10^-6
Human ERα; SKBR3 (ERα), luciferase, 24 h, read-out: EC50 (concentration for half-maximal induction)
  EC50: 5.8 µM
Human ERβ
  maximum luciferase induction, percent of maximum E2 activity: 80 ± 10%
Human ERβ; SKBR3 (ERβ)
  REP (relative estrogenic potency = EC50 E2/EC50 chemical): 1.5 × 10^-5
Estrogen receptor; BG1Luc4E2 (ovarian), luciferase, 24 h, read-out: EC50 (concentration for half-maximal induction)
  EC50: 120 µM
Estrogen receptor; BG1Luc4E2 cells
  concentrations resulting in no luciferase induction: below 31.6 μM
  orders of magnitude weaker in potency than the E2 standard: approximately 7 orders of magnitude
Estrogen receptor; BG1Luc4E2 cells, 1 nM E2 = 100%, 24 h
  maximum luciferase induction, percent of maximum E2 activity: > 400%
Estrogen receptor; BG1Luc4E2 cells, 119 μM and 158 μM, superinduction
  luciferase induction, percent of maximum E2 activity: > 400%
SKBR3 cells [4]
  concentrations resulting in significantly decreased protein concentration: greater than 100 μM
  effect on cells at 0.316 mM: caused cell death
